According to patent publication US9085540B2, “Pyrazinecarboxamide compound” (Astellas Pharma Inc., priority 2012, dated 2015):

Key:
[1] = test system: Ba/F3 cells expressing EGFR T790M/del19 mutation kinase; experiment: Inhibition of EGFR T790M/del19 mutation kinase-dependent cell proliferation (Cell Titer-Glo); assay type: cell-based; settings: Mus musculus, BaF3, 48 h; Ba/F3 cells expressing EGFR T790M/del19, cultured 2 days
Experimental: (§1) In a 96-well plate (Iwaki), Ba/F3 cells were seeded at 500 cells per well in an RPMI1640 medium (Invitrogen) containing 10% fetal bovine serum, followed by the addition of the test compound (final concentrations ranging from 1 μM to 0.1 nM) and DMSO which was a solvent of the test compound as a negative control. In the presence of 5% CO2, the cells were cultured at 37° C. for 2 days. A cell counting reagent (Cell Titer-Glo; Promega) was added thereto, and the light emitting intensity was measured using a luminometer (Envison or ARVO; PerkinElmer Inc.). […] The inhibitory rate of the test compound was calculated and the concentration causing 50% inhibition (IC50 value) was determined by a logistic regression method.

EGFR [T790M/L858R] = EGFR [T790M/L858R] (Homo sapiens (Human), UniProt P00533, L858R/T790M); experiment: Inhibitory activity on EGFR T790M/L858R mutation kinase (LabChip peptide substrate phosphorylation); assay type: biochemical; settings: EGFR [T790M/L858R] enzyme, 2 hours preincubation, ATP 1000 μM
EGFR [T790M/L858R], sequence (P00533 25-1210 T790M/L858R): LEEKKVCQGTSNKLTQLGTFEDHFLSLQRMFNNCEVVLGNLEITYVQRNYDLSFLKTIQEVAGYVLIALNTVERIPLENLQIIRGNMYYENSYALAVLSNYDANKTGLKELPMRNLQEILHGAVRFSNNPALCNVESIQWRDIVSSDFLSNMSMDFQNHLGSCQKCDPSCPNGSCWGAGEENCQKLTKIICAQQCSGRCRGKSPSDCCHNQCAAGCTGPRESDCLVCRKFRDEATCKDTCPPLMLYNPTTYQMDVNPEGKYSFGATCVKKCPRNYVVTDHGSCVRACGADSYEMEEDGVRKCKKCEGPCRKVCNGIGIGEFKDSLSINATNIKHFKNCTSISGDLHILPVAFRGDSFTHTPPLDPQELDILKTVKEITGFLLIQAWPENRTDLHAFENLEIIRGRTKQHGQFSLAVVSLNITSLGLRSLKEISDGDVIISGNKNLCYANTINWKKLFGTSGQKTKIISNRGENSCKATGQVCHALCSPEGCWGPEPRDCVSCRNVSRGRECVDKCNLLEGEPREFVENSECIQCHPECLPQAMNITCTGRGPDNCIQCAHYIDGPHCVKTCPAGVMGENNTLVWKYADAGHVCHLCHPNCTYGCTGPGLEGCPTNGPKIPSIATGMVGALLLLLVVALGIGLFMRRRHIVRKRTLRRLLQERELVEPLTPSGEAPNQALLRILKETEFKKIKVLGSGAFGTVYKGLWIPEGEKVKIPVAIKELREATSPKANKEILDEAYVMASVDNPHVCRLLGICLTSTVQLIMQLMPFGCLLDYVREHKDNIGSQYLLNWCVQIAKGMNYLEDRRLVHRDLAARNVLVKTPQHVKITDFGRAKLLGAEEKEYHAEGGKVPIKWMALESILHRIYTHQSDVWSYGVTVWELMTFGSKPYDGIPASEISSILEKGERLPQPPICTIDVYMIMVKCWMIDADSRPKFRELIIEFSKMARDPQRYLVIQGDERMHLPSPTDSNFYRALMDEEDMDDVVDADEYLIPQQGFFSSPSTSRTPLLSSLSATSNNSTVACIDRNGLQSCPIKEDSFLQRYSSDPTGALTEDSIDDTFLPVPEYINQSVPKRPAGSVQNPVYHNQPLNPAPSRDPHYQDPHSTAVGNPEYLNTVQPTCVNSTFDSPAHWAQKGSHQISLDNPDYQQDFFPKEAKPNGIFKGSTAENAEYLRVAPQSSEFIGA
Experimental: The phosphorylation activity on the peptide substrate of EGFR was investigated using LabChip (trademark) Systems (Caliper Life Sciences, Inc.). […] (Carna Biosciences, Inc.) was used. […] Then, the substrate and the ATP solution were added thereto, followed by reaction for 1 hour. An ATP concentration of 1000 μM was used. A reaction liquid containing the enzyme protein but no test compound (in which the DMSO alone was added as a solvent at 0.4% in place of the test compound) was prepared, followed by reaction in the same manner with or without ATP addition. […] The concentration causing 50% inhibition (IC50) was calculated for the test compound by a logistic regression method.

[2] = test system: Ba/F3 cells expressing EGFR T790M/L858R mutation kinase; experiment: Inhibition of EGFR T790M/L858R mutation kinase-dependent cell proliferation (Cell Titer-Glo); assay type: cell-based; settings: Mus musculus, BaF3, 48 h, cultured 2 days
Experimental: as §1

[3] = test system: H1975 cells (EGFR T790M mutation-expressing) subcutaneous tumor; experiment: Anti-tumor test on EGFR T790M mutation-expressing H1975 cell cancer-bearing mice; assay type: in vivo; settings: Mus musculus, NCI-H1975, 336 h; H1975 cancer-bearing nude mice, oral 10 mg/kg once a day for 14 days; read-out: inhibitory rate (tumor volume)
Experimental: 3×10^6 Cells of H1975 suspended in PBS were inoculated subcutaneously by injection to the back of 5-week old male […] nude mice (Charles River Laboratories Japan, Inc.). After 10 days of the inoculation, the administration of the test compound was initiated. The test was carried out in the solvent group and the test compound groups, with 5 animals per group. The test compounds were each mixed in a solvent of 0.5% aqueous methyl cellulose solution or a mixed solvent of polyethyleneglycol:N-methylpyrrolidone=90:10, and administered orally at a dose of 10 mg/kg. Administrations were performed once a day for 14 days, and the body weight and the tumor diameter were measured roughly every other day. The tumor volume was calculated using the following formula. [Tumor volume (mm^3)]=[Tumor major axis (mm)]×[Tumor minor axis (mm)]^2×0.5

SMILES | IC50 [1] | IC50 (EGFR [T790M/L858R]) | IC50 [2] | inhibition in vivo at 10 mg/kg [3]
CCc1nc(C(N)=O)c(Nc2ccc(N3CCN(C)CC3)cc2)nc1Oc1cccc(NC(=O)/C=C/CN(C)C)c1 [Example 3, 5-(3-{[(2E)-4-(dimethylamino)buta-2-enoyl]amino}phenoxy)-6-ethyl-3-{[4-(4-methylpiperazin-1-yl)phenyl]amino}pyrazine-2-carboxamide] | 8.8 nM | 1.4 nM | 17 nM | 
C=CC(=O)Nc1ccc(F)c(Oc2nc(Nc3ccc(N4CCN(C)CC4)cc3)c(C(N)=O)nc2CC)c1 [Example 82] |  | 1.5 nM |  | 84%
C=CC(=O)Nc1cccc(Oc2nc(Nc3ccc(OC)c(N4CCN(C)CC4)c3)c(C(N)=O)nc2CC)c1 [Example 42] | 1.3 nM | 1.2 nM | 1.4 nM | 
C=CC(=O)N1CC[C@@H](Oc2nc(Nc3ccc(N4CCC(N5CCN(C)CC5)CC4)cc3)c(C(N)=O)nc2CC)C1 [Example 54] | 3.2 nM | 1.7 nM | 4.5 nM | 74%
C=CC(=O)Nc1cccc(Oc2nc(Nc3ccc(N4CCN(C)CC4)cc3)c(C(N)=O)nc2CC)c1 [Example 1, 5-[3-(acryloylamino)phenoxy]-6-ethyl-3-{[4-(4-methylpiperazin-1-yl)phenyl]amino}pyrazine-2-carboxamide] | 1.4 nM | 1.3 nM | 2.2 nM | 24%
C=CC(=O)N1CCC[C@@H](Oc2nc(Nc3ccc(N4CCC(N5CCN(C)CC5)CC4)cc3)c(C(N)=O)nc2CC)C1 [Example 79] |  | 1.3 nM |  | 30%
C=CC(=O)N1CCC[C@@H](Oc2nc(Nc3ccc(N4CCC(N5CCN(C)CC5)CC4)c(C)c3)c(C(N)=O)nc2CC)C1 [Example 80] |  | 1.2 nM |  | 27%
C=CC(=O)Nc1cccc(Oc2nc(Nc3cnn(C4CCN(C)CC4)c3)c(C(N)=O)nc2C(C)C)c1 [Example 56] | 1.6 nM | 1.3 nM | 2 nM | 

Second part, led by results:

IC50 [1] | IC50 (EGFR [T790M/L858R]) | IC50 [2] | SMILES | inhibition in vivo at 10 mg/kg [3]
0.66 nM |  |  | C=CC(=O)Nc1cccc(Oc2nc(Nc3ccc(N4CCN(C)[C@@H](C)C4)cc3)c(C(N)=O)nc2CC)c1 [Example 63] | 
0.77 nM | 1.2 nM | 1.1 nM | C=CC(=O)Nc1cccc(Oc2nc(Nc3ccc(N4CCN(C)CC4)cc3)c(C(N)=O)nc2CC)c1C [Example 15] | 41%
0.42 nM |  |  | C=CC(=O)Nc1cccc(Oc2nc(Nc3ccc(N4CCN(C)[C@H](C)C4)cc3)c(C(N)=O)nc2CC)c1 [Example 64] | 28%
0.51 nM |  |  | C=CC(=O)Nc1cccc(Oc2nc(Nc3ccc(N4CCN(CC)CC4)cc3)c(C(N)=O)nc2CC)c1 [Example 43] | 
0.52 nM | 1.1 nM | 0.92 nM | C=CC(=O)Nc1cccc(Oc2cnc(C(N)=O)c(Nc3ccc(N4CCN(C)CC4)cc3)n2)c1 [Example 26] | 
0.48 nM |  |  | C=CC(=O)N1CCC(c2nc(Nc3ccc(N4CCC(N5CCN(C)CC5)CC4)c(C)c3)c(C(N)=O)nc2CC)CC1 [Example 24] | 100%
